≈ marks a conversion by molar mass, not a printed value. Like-named read-outs stand apart in the source and are kept apart here.
Legend:
[1] = Reduction potential and equilibrium constant for reduction of ME^ox by the dithiol; type: physicochemical; settings: for K, equilibrium constant: reduction of ME^ox with the dithiol in water, pH 7.0, 100 mM phosphate buffer; for ε° (reduction potential): relative to mercaptoethanol (-0.209 V)
Description: We used the equilibrium constant between meso-DTA and DTT to determine the values of ε° and K(ME) of meso-DTA.
(§1) After 4 h, a ^1 H NMR spectrum was obtained.

[2] = Solubility in phosphate buffer; type: physicochemical; settings: reduced (dithiol) form, phosphate buffer pH 7.0, 100 mM phosphate, 25° C
Description: ^e The solubilities were determined in phosphate buffer (pH 7.0, 100

DNase = target: T1, DNase (Bos taurus, UniProt P00639); experiment: Rate of reduction (deactivation) of DNase; type: biochemical; set-up: kapp^DTA: unit not given here
T1 construct: purchased Sigma
T1 sequence (P00639 23-282): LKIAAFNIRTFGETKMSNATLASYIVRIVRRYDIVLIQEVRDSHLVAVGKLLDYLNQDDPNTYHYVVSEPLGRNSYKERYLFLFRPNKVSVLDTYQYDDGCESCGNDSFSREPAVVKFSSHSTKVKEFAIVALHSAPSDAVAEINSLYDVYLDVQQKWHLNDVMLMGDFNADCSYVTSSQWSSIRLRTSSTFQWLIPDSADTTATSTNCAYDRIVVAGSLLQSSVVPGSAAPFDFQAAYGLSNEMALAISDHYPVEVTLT
Source text: (§2) In papain and creatine kinase, the disulfide being reduced is derived from an essential active site cysteine, (Smith et al., Biochemistry 1975, 14, 766-771) and the rate measured is the rate of reactivation of the modified protein. (Shaked et al., Biochemistry 1980, 19, 4156-4166.) DNase is deactivated by the reduction of an internal disulfide. (Shaked et al., Biochemistry 1980, 19, 4156-4166; and Price et al., J. Biol. Chem. 1969, 244, 929-932.)

[3] = Determination of pKa (absorbance at 238 nm against pH); type: physicochemical; settings: for fraction existing as the thiolate: pH 7.0; for pKa: aqueous buffers
Description: The absorbance at 238 nm of meso-DTA (100 μL of an 8 mM ethanolic solution of meso-DTA) in various aqueous buffers (3 mL, 50 mM: 2,2-dimethylsuccinate, pH 6.0, 6.4, 6.8; Tris, pH 7.0, 7.3, 7.7, 8.0, 8.3, 8.7; glycine, pH 9.0, 9.5, 10.0) was plotted against pH. This curve was then compared with plots derived from theory.

[4] = Equilibration of dl-DTA and meso-DTA (1H NMR); type: physicochemical; settings: 100 mM phosphate buffer, pD 7.0
Description: dl-DTA^OX (2 mg in 0.5 mL of buffered D2 O (100 mM NaPO4, pD 7.0)) and meso-DTA (6 mg in 1.5 mL of buffered D2 O (100 mM NaPO4, pD 7.0)) were mixed in an NMR tube, and ^1 H NMR spectra were taken at various times. The value of Keq was calculated from the ^1 H NMR integrals.

[5] = Kinetics of reduction of mercaptoethanol disulfide by 1H NMR spectroscopy; type: physicochemical; set-up: kapp^DTA / kapp, apparent rate constant: unit not given here; settings: for kapp, apparent rate constant: reduction of mercaptoethanol disulfide (ME^ox), pH 7.0, aqueous phosphate buffer (50 mM)
Description: (§3) The thiol-disulfide interchange reaction was quenched by addition of 25 μL of a DCl solution (12 wt % in D2 O) in one tube after 2 min, in another tube after 4 min, and in another tube after 6 min. The same series of experiments was carried out with the meso-DTA solution instead of the DTT solution. The second-order rate constant was calculated from the integrals of the ^1 H NMR spectra.

[6] = reference value to which all ε° are relative; cited from earlier work
[7] = Equilibrium experiment, meso-DTA with DTT^OX (1H NMR); type: physicochemical; settings: 50 mM phosphate buffer, pD 7.0
Description: as §1

[8] = Relative rate of reduction of disulfides, meso-DTA compared with DTT (summary and calculation); type: physicochemical; settings: pH 7.0
Source text: as §2
The difference between the calculated and the actual value for proteins could be due to steric interactions, because meso-DTA is a secondary thiol and DTT is a primary thiol. The difference in rates could also be due to the relative difference in hydrophobicities of the two compounds.

[9] = Kinetics of reduction of glutathione disulfide by 1H NMR spectroscopy; type: physicochemical; set-up: kapp^DTA: unit not given here; settings: pH 7.0, 298 K
Description: as §3

[10] = target: T2, creatine kinase-S-S-glutathione (Oryctolagus cuniculus, UniProt P00563); experiment: Kinetics of reactivation of creatine kinase-S-S-glutathione; type: biochemical; set-up: kapp^DTA: unit not given here
T2 construct: purchased Sigma
T2 sequence (P00563 2-381 limits assumed): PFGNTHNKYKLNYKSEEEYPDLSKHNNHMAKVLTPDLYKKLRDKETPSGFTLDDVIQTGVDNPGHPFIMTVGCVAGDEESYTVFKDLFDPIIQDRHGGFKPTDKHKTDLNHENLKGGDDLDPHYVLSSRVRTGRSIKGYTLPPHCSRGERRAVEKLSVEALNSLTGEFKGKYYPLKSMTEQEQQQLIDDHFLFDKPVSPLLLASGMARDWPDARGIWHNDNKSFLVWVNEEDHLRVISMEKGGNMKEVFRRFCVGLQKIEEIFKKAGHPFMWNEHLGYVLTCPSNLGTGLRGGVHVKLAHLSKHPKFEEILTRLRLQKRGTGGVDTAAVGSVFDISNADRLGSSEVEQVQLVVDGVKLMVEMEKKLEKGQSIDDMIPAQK
Source text: as §2
The solution of creatine kinase S-S-glutathione (the procedure was analogous to that of Walters and Gilbert, J. Biol. Chem. 1986, 261, 15372-15377) (10 μL) was diluted with deoxygenated aqueous buffer (pH 7.0, 0.1M imidazole, 2 mM EDTA, 2.5 mL). The diluted solution was added to two flasks (1.0 mL each). […] At various times, a 50-μL aliquot was withdrawn and added to an assay solution (950 μL, pH 6.0, 0.1M imidazole, 2 mM EDTA, 10 mM MgCl2, 2 mM ADP, 20 mM d-glucose, 2 mM NADP, 30 mM phosphocreatine, hexokinase (50 units/mL), glucose-6-phosphate dehydrogenase (35 units/mL)). The rate of increase in absorbance at 340 nm was recorded. (Gerhardt, Methods of Enzymatic Analysis, 3rd ed.; Bergmeyer, Ed.; Verlag Chemie: Weinheim, 1983; Vol. III, pp. 508-524.)

papain-S-S-Me = target: T3, papain-S-S-Me (Carica papaya, UniProt P00784); experiment: Kinetics of reactivation of papain-S-S-Me; type: biochemical; set-up: kapp^DTA: unit not given here
T3 construct: purchased Boehringer Mannheim
T3 sequence (P00784 134-345): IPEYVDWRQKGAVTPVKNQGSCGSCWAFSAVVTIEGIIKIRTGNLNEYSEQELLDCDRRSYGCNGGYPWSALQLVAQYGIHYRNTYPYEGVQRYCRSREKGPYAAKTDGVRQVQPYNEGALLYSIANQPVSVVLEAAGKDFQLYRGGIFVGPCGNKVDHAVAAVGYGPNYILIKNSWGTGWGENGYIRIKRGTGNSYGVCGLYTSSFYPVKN
Description: as §2
The papain-S-S-Me was prepared as described by Shaked et al., Biochemistry 1980, 19, 4156-4166. […] Chem. 1991, 56, 2332-2337.

[11] = reduction of an internal disulfide, aqueous solution, pH 7.0, 298 K
[12] = aqueous buffer, read-out: solubility
[13] = DMH data from Singh and Whitesides 1991
[14] = rate of reactivation, aqueous solution, pH 7.0, 298 K

In the case of `O[C@H](CS)[C@H](O)CS` (racemic) [DTT, dithiothreitol, reference compound], the “K, equilibrium constant” value [1] is reported as 10^5 M, the “ε° (reduction potential)” value [1] is reported as -0.356 V and the solubility [2] is reported as “high”. The “kapp^DTT” value (DNase; [11]) was 0.19 M^1 g^-1 and the “fraction existing as the thiolate” value [3] was “about 1%”.
In the case of `CN(C)C(=O)[C@H](S)CC[C@@H](S)C(=O)N(C)C` (relative stereo) [dl-DTA], the “factor by which more reducing than meso-DTA” value [4] is reported as 10, the “K, equilibrium constant” value [1] is reported as 10^4 M and the “ε° (reduction potential)” value [1] is reported as -0.328 V.
For `CN(C(=O)CS)N(C)C(=O)CS` [DMH, N,N'-dimethyl-N,N'-bis(mercaptoacetyl) hydrazine, reference compound], the “kapp, apparent rate constant” value [5] was 0.52, the “K, equilibrium constant” value [1] was 10^3 M and the “ε° (reduction potential)” value [1] was -0.300 V. It also gave a solubility [2, 12] of 250 mM (≈ 52.1 mg/mL), a pKa ([3]; read-out: pKa (first thiol)) of 7.6 and a pKa ([3]; read-out: pKa (second thiol)) of 8.9.
For `OCCS` [ME, Mercaptoethanol], the “ε° of the reference mercaptoethanol” value [6] is given as -0.209 V.
In the case of `CN(C)C(=O)[C@H](S)CC[C@H](S)C(=O)N(C)C` [meso-DTA, meso-2,5-Dimercapto-N,N,N',N'-tetramethyladipamide], the “Keq = [meso-DTA^OX][DTT]/[meso-DTA][DTT^OX]” value [7] is reported as 0.010, the “times faster reduction of disulfide bonds than DTT” value ([8]; aqueous solution) is reported as “up to 8 times” and the “relative rate of reduction compared with DTT, disulfide bond in proteins” value ([8]; water) is reported as 2-5 times. The “kapp^DTA / kapp^DTT” value ([9]; glutathione disulfide) was 5.5, the “kapp^DTA” value ([9]; reduction of glutathione disulfide, aqueous solution) was 0.31 and the “Keq = [meso-DTA^OX][dl-DTA]/[meso-DTA][dl-DTA^OX]” value [4] was 0.10. For the same compound, the “kapp^DTA / kapp^DTT” value ([5]; mercaptoethanol disulfide, pH 7.0, 298 K) was 7.7, the “kapp^DTA / kapp^DMH” value ([5]; mercaptoethanol disulfide, DMH data from Singh and Whitesides 1991) was 1.1 and the “kapp, apparent rate constant” value [5] was 0.50. The “kapp^DTA” value ([5]; reduction of mercaptoethanol disulfide, aqueous solution, pH 7.0, 298 K) was 0.50, the “factor by which the equilibrium constant for reduction of ME^OX is less than that of DTT” value [1] was 10^2 and the “less reducing than DTT by” value [1] was “approximately 56 mV”. The “K, equilibrium constant” value [1] was 10^3 M, the “ε° (reduction potential)” value [1] was -0.300 V and the “kapp^DTA / kapp^DMH” value [10, 13] was 0.5. For the same compound, the “kapp^DTA / kapp^DTT” value ([10]; pH 7.0, 298 K) was 3.4, the “kapp^DTA” value [10, 14] was 78 and the solubility [2, 12] was 80 mM (≈ 21.2 mg/mL). For the same compound, the “kapp^DTA / kapp^DMH” value (papain-S-S-Me; [13]) was 0.15, the “kapp^DTA / kapp^DTT” value (papain-S-S-Me; pH 7.0, 298 K) was 4.5 and the “kapp^DTA” value (papain-S-S-Me; [14]) was 260. The “kapp^DTA / kapp^DMH” value (DNase; [13]) was 0.4, the “kapp^DTA / kapp^DTT” value (DNase; pH 7.0, 298 K) was 1.8 and the “kapp^DTA” value (DNase; [11]) was 0.34. The pKa ([3]; read-out: pKa (first thiol)) was 7.8 ± 0.2, the pKa ([3]; read-out: pKa (second thiol)) was 8.9 ± 0.2 and the “fraction existing as the thiolate” value [3] was “approximately 15%”.

— patent US5378813A, “Meso-2,5-dimercapto-N,N,N'N'-tetramethyladipamide” (President and Fellows of Harvard College, priority 1992, dated 1995)
